Experimental data reported in ChEMBL document CHEMBL1201861, “Genomics of Drug Sensitity in Cancer screening data, Wellcome Trust Sanger Institute”.

Key:
[1] = tested on: Ca-Ski; assay: cells; assay type: functional, cell-based; conditions: Homo sapiens;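 further: cell viability assay measuring inhibition of Ca-Ski cell growth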
Description: SANGER: Inhibition of human Ca-Ski cell growth in a cell viability assay.

[2] = tested on: CaR-1; assay: cells; assay type: functional, cell-based; conditions: Homo sapiens;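 further: growth inhibition of human CaR-1 cancer cells, read out with a cell viability assay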
Description: SANGER: Inhibition of human CaR-1 cell growth in a cell viability assay.

[3] = tested on: DK-MG; assay: cells; assay type: functional, cell-based; conditions: Homo sapiens;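 further: growth inhibition of DK-MG cells, read out with a cell viability assay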
Description: SANGER: Inhibition of human DK-MG cell growth in a cell viability assay.

[4] = tested on: DMS-273; assay: cells; assay type: functional, cell-based; conditions: Homo sapiens
Description: SANGER: Inhibition of human DMS-273 cell growth in a cell viability assay.

[5] = tested on: HCC1395; assay: cells; assay type: functional, cell-based; conditions: Homo sapiens;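 further: growth inhibition of HCC1395 cells, read out by a cell viability assay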
Description: SANGER: Inhibition of human HCC1395 cell growth in a cell viability assay.

[6] = tested on: HCC1954; assay: cells; assay type: functional, cell-based; conditions: Homo sapiens;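 further: growth inhibition of human HCC1954 cells, read out with a cell viability assay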
Description: SANGER: Inhibition of human HCC1954 cell growth in a cell viability assay.

[7] = tested on: HGC-27; assay: cells; assay type: functional, cell-based; conditions: Homo sapiens;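 further: growth inhibition of human HGC-27 cells, read out in a cell viability assay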
Description: SANGER: Inhibition of human HGC-27 cell growth in a cell viability assay.

[8] = tested on: HT1197; assay: cells; assay type: functional, cell-based, HT-1197; conditions: Homo sapiens
Description: SANGER: Inhibition of human HT-1197 cell growth in a cell viability assay.

[9] = tested on: HT-1376; assay: cells; assay type: functional, cell-based; conditions: Homo sapiens
Description: SANGER: Inhibition of human HT-1376 cell growth in a cell viability assay.

[10] = tested on: IGROV-1; assay: cells; assay type: functional, cell-based; conditions: Homo sapiens;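 further: reduction of IGROV-1 cell growth, read out with a viability assay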
Description: SANGER: Inhibition of human IGROV-1 cell growth in a cell viability assay.

[11] = tested on: KYSE-140; assay: cells; assay type: functional, cell-based; conditions: Homo sapiens;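 further: cell viability assay measuring growth inhibition in human KYSE-140 cells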
Description: SANGER: Inhibition of human KYSE-140 cell growth in a cell viability assay.

[12] = tested on: MOLT-13; assay: cells; assay type: functional, cell-based; conditions: Homo sapiens;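 further: IC50 for suppression of MOLT-13 cell growth, read out with a cell viability assay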
Description: SANGER: Inhibition of human MOLT-13 cell growth in a cell viability assay.

[13] = tested on: NB7; assay: cells; assay type: functional, cell-based, Homo sapiens; conditions: Homo sapiens, NB7;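 further: growth inhibition of NB7 cells, read out with a cell viability assay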
Description: SANGER: Inhibition of human NB7 cell growth in a cell viability assay.

[14] = tested on: NCI-H2052; assay: cells; assay type: functional, cell-based; conditions: Homo sapiens;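 further: growth inhibition of NCI-H2052 cells, read out with a cell viability assay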
Description: SANGER: Inhibition of human NCI-H2052 cell growth in a cell viability assay.

[15] = tested on: NCI-H2170; assay: cells; assay type: functional, cell-based; conditions: Homo sapiens;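 further: cell viability assay measuring growth inhibition of human NCI-H2170 cancer cells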
Description: SANGER: Inhibition of human NCI-H2170 cell growth in a cell viability assay.

[16] = tested on: NCI-H596; assay: cells; assay type: functional, cell-based; conditions: Homo sapiens;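 further: growth inhibition of NCI-H596 cells, read out with a cell viability assay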
Description: SANGER: Inhibition of human NCI-H596 cell growth in a cell viability assay.

[17] = tested on: NCI-H661; assay: cells; assay type: functional, cell-based; conditions: Homo sapiens;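 further: cell viability assay read-out, IC50 being the concentration that inhibits growth of the cells by half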
Description: SANGER: Inhibition of human NCI-H661 cell growth in a cell viability assay.

[18] = tested on: PC-3; assay: cells; assay type: functional, cell-based; conditions: Homo sapiens;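 further: cell viability assay measuring growth inhibition of PC-3 cells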
Description: SANGER: Inhibition of human PC-3 cell growth in a cell viability assay.

[19] = tested on: RVH-421; assay: cells; assay type: functional, cell-based; conditions: Homo sapiens
Description: SANGER: Inhibition of human RVH-421 cell growth in a cell viability assay.

[20] = tested on: SBC-5; assay: cells; assay type: functional, cell-based; conditions: Homo sapiens;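 further: cell viability assay read-out, IC50 is the concentration that inhibits growth of the cells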
Description: SANGER: Inhibition of human SBC-5 cell growth in a cell viability assay.

[21] = tested on: SK-HEP1; assay: cells; assay type: functional, cell-based, SK-HEP-1; conditions: Homo sapiens;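 further: cell viability readout used to quantify reduction in proliferation of human SK-HEP-1 cells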
Description: SANGER: Inhibition of human SK-HEP-1 cell growth in a cell viability assay.

[22] = tested on: SK-MEL3; assay: cells; assay type: functional, cell-based, SK-MEL-3; conditions: Homo sapiens;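 further: growth inhibition of human SK-MEL-3 cells, read out with a cell viability assay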
Description: SANGER: Inhibition of human SK-MEL-3 cell growth in a cell viability assay.

[23] = tested on: SK-MEL-30; assay: cells; assay type: functional, cell-based; conditions: Homo sapiens;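 further: growth inhibition of SK-MEL-30 cells, determined with a cell viability assay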
Description: SANGER: Inhibition of human SK-MEL-30 cell growth in a cell viability assay.

[24] = tested on: SK-OV-3; assay: cells; assay type: functional, cell-based; conditions: Homo sapiens;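 further: growth inhibition of SK-OV-3 human cells, read out with a cell viability assay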
Description: SANGER: Inhibition of human SK-OV-3 cell growth in a cell viability assay.

[25] = tested on: SW1783; assay: cells; assay type: functional, cell-based; conditions: Homo sapiens
Description: SANGER: Inhibition of human SW1783 cell growth in a cell viability assay.

[26] = tested on: SW48; assay: cells; assay type: functional, cell-based; conditions: Homo sapiens;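 further: growth inhibition of SW48 cells, read out with a cell viability assay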
Description: SANGER: Inhibition of human SW48 cell growth in a cell viability assay.

[27] = tested on: SW756; assay: cells; assay type: functional, cell-based; conditions: Homo sapiens;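 further: growth inhibition of human SW756 cells, read out with a cell viability assay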
Description: SANGER: Inhibition of human SW756 cell growth in a cell viability assay.

[28] = tested on: SW780; assay: cells; assay type: functional, cell-based; conditions: Homo sapiens;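 further: growth inhibition of the cells, read out with a cell viability assay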
Description: SANGER: Inhibition of human SW780 cell growth in a cell viability assay.

[29] = tested on: SAOS-2; assay: cells; assay type: functional, cell-based; conditions: Homo sapiens;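 further: growth inhibition of human Saos-2 cells determined by a cell viability assay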
Description: SANGER: Inhibition of human Saos-2 cell growth in a cell viability assay.

[30] = tested on: 639-V; assay: cells; assay type: functional, cell-based; conditions: Homo sapiens;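 further: growth inhibition of 639-V cells, read out with a cell viability assay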
Description: SANGER: Inhibition of human 639-V cell growth in a cell viability assay.

[31] = tested on: 647-V; assay: cells; assay type: functional, cell-based; conditions: Homo sapiens;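 further: growth inhibition of 647-V cells, read out with a cell viability assay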
Description: SANGER: Inhibition of human 647-V cell growth in a cell viability assay.

[32] = tested on: 769-P; assay: cells; assay type: functional, cell-based; conditions: Homo sapiens
Description: SANGER: Inhibition of human 769-P cell growth in a cell viability assay.

[33] = tested on: 8505C; assay: cells; assay type: functional, cell-based; conditions: Homo sapiens
Description: SANGER: Inhibition of human 8505C cell growth in a cell viability assay.

[34] = tested on: A 172; assay: cells; assay type: functional, cell-based; conditions: Homo sapiens;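 further: growth inhibition of A172 cells, measured with a cell viability readout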
Description: SANGER: Inhibition of human A172 cell growth in a cell viability assay.

[35] = tested on: A204; assay: cells; assay type: functional, cell-based; conditions: Homo sapiens;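 further: growth inhibition of human A204 cells, read out with a cell viability assay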
Description: SANGER: Inhibition of human A204 cell growth in a cell viability assay.

[36] = tested on: A-375; assay: cells; assay type: functional, cell-based; conditions: Homo sapiens;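 further: growth inhibition of A375 cells, read out with a cell viability assay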
Description: SANGER: Inhibition of human A375 cell growth in a cell viability assay.

[37] = tested on: A-431; assay: cells; assay type: functional, cell-based; conditions: Homo sapiens;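 further: growth inhibition of A-431 cells, determined with a cell viability read-out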
Description: SANGER: Inhibition of human A431 cell growth in a cell viability assay.

[38] = tested on: AN3-CA; assay: cells; assay type: functional, cell-based; conditions: Homo sapiens;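 further: growth inhibition of human AN3-CA cells measured by a cell viability assay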
Description: SANGER: Inhibition of human AN3-CA cell growth in a cell viability assay.

[39] = tested on: C-33-A; assay: cells; assay type: functional, cell-based; conditions: Homo sapiens;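 further: cell viability assay measuring growth inhibition of C-33-A cells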
Description: SANGER: Inhibition of human C-33-A cell growth in a cell viability assay.

[40] = tested on: CAL-120; assay: cells; assay type: functional, cell-based; conditions: Homo sapiens;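 further: cell growth inhibition, read out as cell viability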
Description: SANGER: Inhibition of human CAL-120 cell growth in a cell viability assay.

[41] = tested on: CAL-33; assay: cells; assay type: functional, cell-based; conditions: Homo sapiens;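 further: growth inhibition of CAL-33 cells, read out with a cell viability assay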
Description: SANGER: Inhibition of human CAL-33 cell growth in a cell viability assay.

[42] = tested on: VM-CUB-1; assay: cells; assay type: functional, cell-based; conditions: Homo sapiens;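 further: cell viability assay measuring growth inhibition of the human VM-CUB-1 cell line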
Description: SANGER: Inhibition of human VM-CUB-1 cell growth in a cell viability assay.

[43] = tested on: EW-24; assay: cells; assay type: functional, cell-based, Homo sapiens; conditions: Homo sapiens, EW-24;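 further: human EW-24 cancer cell line, growth inhibition read out via a cell viability assay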
Description: SANGER: Inhibition of human EW-24 cell growth in a cell viability assay.

[44] = tested on: IST-SL2; assay: cells; assay type: functional, cell-based, Homo sapiens; conditions: Homo sapiens, IST-SL2;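 further: growth inhibition of human IST-SL2 cells, read out by a cell viability assay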
Description: SANGER: Inhibition of human IST-SL2 cell growth in a cell viability assay.

[45] = tested on: K052; assay: cells; assay type: functional, cell-based, Homo sapiens; conditions: Homo sapiens, K052;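 further: Read-out from a cell viability assay, IC50 reflecting suppression of K052 cell growth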
Description: SANGER: Inhibition of human K052 cell growth in a cell viability assay.

[46] = tested on: KARPAS-422; assay: cells; assay type: functional, cell-based, Homo sapiens; conditions: Homo sapiens, KARPAS-422
Description: SANGER: Inhibition of human KARPAS-422 cell growth in a cell viability assay.

[47] = tested on: LB373-MEL-D; assay: cells; assay type: functional, cell-based, Homo sapiens; conditions: Homo sapiens, LB373-MEL-D;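 further: growth inhibition of the cell line, read out in a cell viability assay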
Description: SANGER: Inhibition of human LB373-MEL-D cell growth in a cell viability assay.

[48] = tested on: LB647-SCLC; assay: cells; assay type: functional, cell-based, Homo sapiens; conditions: Homo sapiens, LB647-SCLC;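 further: cell growth inhibition, read out by a viability assay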
Description: SANGER: Inhibition of human LB647-SCLC cell growth in a cell viability assay.

[49] = tested on: NCI-H1436; assay: cells; assay type: functional, cell-based, Homo sapiens; conditions: Homo sapiens, NCI-H1436;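 further: growth suppression of human NCI-H1436 cells, determined with a cell viability readout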
Description: SANGER: Inhibition of human NCI-H1436 cell growth in a cell viability assay.

[50] = tested on: NCI-H1522; assay: cells; assay type: functional, cell-based, Homo sapiens; conditions: Homo sapiens, NCI-H1522;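 further: growth inhibition of NCI-H1522 cells, read out with a cell viability assay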
Description: SANGER: Inhibition of human NCI-H1522 cell growth in a cell viability assay.

[51] = tested on: NCI-H187; assay: cells; assay type: functional, cell-based, Homo sapiens; conditions: Homo sapiens, NCI-H187;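 further: growth inhibition of NCI-H187 cells, read out as cell viability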
Description: SANGER: Inhibition of human NCI-H187 cell growth in a cell viability assay.

[52] = tested on: NCI-H1882; assay: cells; assay type: functional, cell-based, Homo sapiens; conditions: Homo sapiens, NCI-H1882;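 further: growth inhibition of the cell line, determined with a viability assay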
Description: SANGER: Inhibition of human NCI-H1882 cell growth in a cell viability assay.

[53] = tested on: NCI-H2141; assay: cells; assay type: functional, cell-based, Homo sapiens; conditions: Homo sapiens, NCI-H2141;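 further: growth inhibition of human NCI-H2141 cells, read out with a cell viability assay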
Description: SANGER: Inhibition of human NCI-H2141 cell growth in a cell viability assay.

[54] = tested on: NCI-H322M; assay: cells; assay type: functional, cell-based, Homo sapiens; conditions: Homo sapiens, NCI-H322M;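 further: cell viability assay measuring inhibition of growth of human NCI-H322M cells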
Description: SANGER: Inhibition of human NCI-H322M cell growth in a cell viability assay.

[55] = tested on: SR; assay: cells; assay type: functional, cell-based, Homo sapiens; conditions: Homo sapiens, SR
Description: SANGER: Inhibition of human SR cell growth in a cell viability assay.

[56] = tested on: ST486; assay: SANGER: Inhibition of human ST486 cell growth in a cell viability assay.; assay type: functional, cell-based; conditions: Homo sapiens, ST486
[57] = tested on: BL-70; assay: SANGER: Inhibition of human BL-70 cell growth in a cell viability assay.; assay type: functional, cell-based; conditions: Homo sapiens, BL-70
[58] = tested on: CESS; assay: SANGER: Inhibition of human CESS cell growth in a cell viability assay.; assay type: functional, cell-based; conditions: Homo sapiens, CESS

Structure (SMILES): CC1(C)CCC(c2ccc(Cl)cc2)=C(CN2CCN(c3ccc(C(=O)NS(=O)(=O)c4ccc(N[C@H](CCN5CCOCC5)CSc5ccccc5)c(S(=O)(=O)C(F)(F)F)c4)cc3)CC2)C1 [NAVITOCLAX]
- IC50 [1]: > 2000 nM
- IC50 [2]: > 2000 nM
- IC50 [3]: > 2000 nM
- IC50 [4]: > 2000 nM
- IC50 [5]: > 2000 nM
- IC50 [6]: > 2000 nM
- IC50 [7]: > 2000 nM
- IC50 [8]: > 2000 nM
- IC50 [9]: > 2000 nM
- IC50 [10]: > 2000 nM
- IC50 [11]: > 2000 nM
- IC50 [12]: 466 nM
- IC50 [13]: > 2000 nM
- IC50 [14]: 1720 nM
- IC50 [15]: 1060 nM
- IC50 [16]: > 2000 nM
- IC50 [17]: > 2000 nM
- IC50 [18]: > 2000 nM
- IC50 [19]: > 2000 nM
- IC50 [20]: > 2000 nM
- IC50 [21]: > 2000 nM
- IC50 [22]: > 2000 nM
- IC50 [23]: > 2000 nM
- IC50 [24]: > 2000 nM
- IC50 [25]: > 2000 nM
- IC50 [26]: > 2000 nM
- IC50 [27]: > 2000 nM
- IC50 [28]: > 2000 nM
- IC50 [29]: > 2000 nM
- IC50 [30]: > 2000 nM
- IC50 [31]: > 2000 nM
- IC50 [32]: > 2000 nM
- IC50 [33]: > 2000 nM
- IC50 [34]: > 2000 nM
- IC50 [35]: > 2000 nM
- IC50 [36]: > 2000 nM
- IC50 [37]: > 2000 nM
- IC50 [38]: > 2000 nM
- IC50 [39]: > 2000 nM
- IC50 [40]: 1160 nM
- IC50 [41]: > 2000 nM
- IC50 [42]: > 2000 nM

Structure (SMILES): O=C1NC(=O)c2c1c(-c1ccccc1Cl)cc1[nH]c3ccc(O)cc3c21
- IC50 [1]: > 2000 nM
- IC50 [2]: > 2000 nM
- IC50 [3]: > 2000 nM
- IC50 [4]: > 2000 nM
- IC50 [5]: > 2000 nM
- IC50 [6]: > 2000 nM
- IC50 [7]: > 2000 nM
- IC50 [8]: > 2000 nM
- IC50 [9]: > 2000 nM
- IC50 [10]: > 2000 nM
- IC50 [11]: > 2000 nM
- IC50 [12]: > 2000 nM
- IC50 [13]: > 2000 nM
- IC50 [14]: > 2000 nM
- IC50 [15]: > 2000 nM
- IC50 [16]: > 2000 nM
- IC50 [17]: > 2000 nM
- IC50 [18]: > 2000 nM
- IC50 [19]: > 2000 nM
- IC50 [20]: > 2000 nM
- IC50 [21]: > 2000 nM
- IC50 [22]: 1310 nM
- IC50 [23]: > 2000 nM
- IC50 [24]: > 2000 nM
- IC50 [25]: > 2000 nM
- IC50 [26]: > 2000 nM
- IC50 [28]: > 2000 nM
- IC50 [29]: > 2000 nM
- IC50 [30]: > 2000 nM
- IC50 [31]: > 2000 nM
- IC50 [32]: 1020 nM
- IC50 [34]: > 2000 nM
- IC50 [35]: > 2000 nM
- IC50 [36]: 1520 nM
- IC50 [37]: > 2000 nM
- IC50 [38]: > 2000 nM
- IC50 [39]: > 2000 nM
- IC50 [40]: > 2000 nM
- IC50 [41]: > 2000 nM
- IC50 [42]: > 2000 nM

Structure (SMILES): Cc1cc(N2CCOCC2)cc2[nH]c(-c3c(NC[C@@H](O)c4cccc(Cl)c4)cc[nH]c3=O)nc12
- IC50 [43]: > 5120 nM
- IC50 [44]: > 5120 nM
- IC50 [45]: > 5120 nM
- IC50 [46]: > 5120 nM
- IC50 [47]: > 5120 nM
- IC50 [48]: > 5120 nM
- IC50 [12]: > 5120 nM
- IC50 [13]: > 5120 nM
- IC50 [49]: > 5120 nM
- IC50 [50]: > 5120 nM
- IC50 [51]: 2340 nM
- IC50 [52]: 956 nM
- IC50 [53]: > 5120 nM
- IC50 [54]: > 5120 nM
- IC50 [55]: 2050 nM
- IC50 [56]: > 5120 nM
- IC50 [57]: 4800 nM
- IC50 [58]: > 5120 nM

Structure (SMILES): Cc1ccc(NC(=O)c2ccc(CN3CCN(C)CC3)cc2)cc1Nc1nccc(-c2cccnc2)n1 [IMATINIB]
- IC50 [43]: > 2000 nM
- IC50 [44]: > 2000 nM
- IC50 [45]: > 2000 nM
- IC50 [46]: > 2000 nM
- IC50 [47]: > 2000 nM
- IC50 [48]: > 2000 nM
- IC50 [12]: > 2000 nM
- IC50 [13]: > 2000 nM
- IC50 [49]: 978 nM
- IC50 [50]: > 2000 nM
- IC50 [51]: > 2000 nM
- IC50 [52]: > 2000 nM
- IC50 [53]: > 2000 nM
- IC50 [54]: > 2000 nM
- IC50 [55]: > 2000 nM
- IC50 [56]: 685 nM
- IC50 [57]: > 2000 nM
- IC50 [58]: > 2000 nM
